Experimental data as given in paper PMC9272937, “Anti-breast cancer sinomenine derivatives via mechanisms of apoptosis induction and metastasis reduction” (Journal of Enzyme Inhibition and Medicinal Chemistry, 2022).

What was measured:
MDA-MB-231 cells [1] = assay: Cell cycle analysis (PI staining, flow cytometry); format: cell-based, human; conditions: 72 h; for share of S phase in cell cycle: control 45.39%
Method: This assay was conducted on 6-well plates with 200,000 MDA-MB-231 cells per well and incubated for 24 h at 37 °C with 5% CO2, then the medium from each well was removed and treated by 7Cc in different concentrations (0, 0.41, 0.82, 1.64 μM) for additional 72 h incubation. The desired cell suspension was acquired after attached cells were digested then collected and washed in terms. Cell suspension was then subjected to fixation via 70% ethanol and washed with phosphate-buffered solution (PBS), incubated with 100 μL Rnase A, and placed on water bathed for half an hour at 37 °C. For the final step, 400 μL PI was applied to the mixture in a dark environment at 4 °C for 30 min. Then the distribution of DNA content was measured by flow cytometry (FACS Calibur Becton-Dickinson, Franklin Lake, NJ).

MDA-MB-231 cells [2] = assay: Adhesion assay; format: cell-based, human; conditions: 0.41, 0.82, 1.64 μM, 72 h, dose-dependent
Method: MDA-MB-231 cells were incubated in different plates and then treated with 7Cc in different concentrations (0, 0.41, 0.82, 1.64 μM) for 72 h. After that, the CAM ([…]) stain treated serum-free medium was applied and 96-well plates were seeded with 100 μL already prepared cell suspension at 2,000 cells per good concentration for an hour. Then, plates were washed by PBS, fixed via 3.7% formaldehyde, another PBS wash, and photographed by fluorescence microscope.

[3] = Griess assay, NO-releasing capacity; conditions: 10^−4 mol/l compound, L-cysteine, 37 °C
Method: The NO-releasing capacity of each target compound was determined by the colorimetric method under the instructions of the manufacturer. Preparation of standard curves of 0, 1.56, 3.13, 6.25, 12.5, 25, 50 and 100 μmol/L nitrite nitrogen series standard solution was prepared. 50 μL to 96-well plate was added respectively and then mixed with 50 μL Griess I and Griess II; the absorption value was measured at 540 nm wavelength. A standard curve was drawn from the obtained data. Compounds were formulated into 10^−4 mol/l with PBS (pH = 7.4) and pharmaceutical DMSO. The newly formulated L-cysteine solution 100 μL ([…]) was added and incubated at 37 °C for 15, 30, 45, 60, 90, 120, 150 and180 min, respectively. Griess I and II recovered to room temperature, 50 μL of compounds 7A–E(a–c) were added respectively into the 96-well plate, and then 50 μL of Griess I and 50 μL of Griess II were added in sequence, with the absorbance tested at 540 nm. The amount of NO released was then calculated according to the standard curve.

[4] = test system: human mammary gland tumour cell line MCF-7; assay: CCK-8 antiproliferative assay, MCF-7; format: cell-based
Method: (§1) The antiproliferative activities of target compounds were examined by CCK-8 assay in three cancer cells (human lung cancer cell line A549, human mammary gland tumour cell line MCF-7 and human TNBC cell line MDA-MB-231) and one normal cell (human normal breast cell line MCF10A). All cell lines were sourced from KeyGEN Biotech, […], China, and a standard DMEM medium was applied to all cell cultures then subjected to 24 h incubation at 37 °C in a humidified environment with 5% CO2. After that logarithmic growing cells were plated on 96-well plates with 8,000 cells per well in a […] medium for 24 h incubation at 37 °C with 5% CO2. The DMEM medium with bovine serum was removed from each well. Then, prerequisite target compounds and positive controls were added to different cell lines in a predetermined concentration regiment for 48 h culture.

MDA-MB-231 cells [5] = assay: Cell apoptosis assay (annexin V-FITC/PI, flow cytometry); format: cell-based, human; conditions: 72 h, negative control 5.98%
Method: This assay was performed on 6-well plates with 200,000 MDA-MB-231 cells per well and incubated for 24 h at 37 °C with 5% CO2, then the medium from each well was removed and treated by 7Cc in different concentrations (0, 0.41, 0.82, 1.64 μM) for additional 72 h incubation. Subsequently, 500 μL of binding buffer was applied to suspend and collect compound treated cells. Then, 5 μL of both annexin V-fluorescein isothiocyanate (Annexin V-FITC) and propidium iodide (PI) was applied to the mixture and this reaction was placed under total dark at room temperature for 10 min. Cell apoptosis was examined by flow cytometry.

[6] = test system: human TNBC cell line MDA-MB-231; assay: CCK-8 antiproliferative assay, MDA-MB-231; format: cell-based
Method: as §1

MDA-MB-231 cells [7] = assay: Transwell assay; format: cell-based, human; conditions: 0.41, 0.82, 1.64 μM, 24 h, concentration-dependent
Method: Then, cells attached to the upper surface of the membrane were removed while migrated or invaded cells of the lower membrane surface were added 0.1% crystal violet staining for 30 min. Then, migrated or invaded cells of the lower chamber were photographed and counted.

[8] = test system: human lung cancer cell line A549; assay: CCK-8 antiproliferative assay, A549; format: cell-based; conditions: Homo sapiens, A549; CCK-8, 48 h, mean ± SD of three experiments
Method: as §1

MDA-MB-231 cells [9] = assay: Comet assay (DNA damage); format: cell-based, human; conditions: 0.41, 0.82, 1.64 μM, 72 h, MDA-MB-231, neutral comet assay
Method: All DNA damage sustained in this assay was measured via Comet Assay Kit (Keygen, Nanjing, China) according to the manufacturer’s instructions. 7Cc was added to MDA-MB-231 cells at predetermined concentrations (0, 0.41, 0.82, 1.64 μM) for 72 h. These cells were then collected and fixed on CometSlide at 4 °C for 15 min. After that, the cells were set under lysis solution at 4 °C for 90 min and these slides were electrophoresed for 20 min, fixed in ethanol for 5 min, and then stained with Vista Green DNA Dye. The final results were acquired by a fluorescence microscope.

MDA-MB-231 cells [10] = assay: Mitochondrial membrane potential assay (JC-1, flow cytometry); format: cell-based, human; conditions: 48 h, control 3.67%
Method: Briefly, MDA-MB-231 cells in logarithmic growth were placed in 6-well plates with 200,000 cells per well for 24 h before a medium remove and then incubated with 7Cc at predetermined concentrations (0, 0.41, 0.82, 1.64 μM) for 48 h. Cells were collected after and washed with PBS. JC-1 dye was added to cells for staining under total dark conditions according to the manufacturer's instructions (KGA601, KeyGEN Biotech, Nanjing, China). The percentage of cells with collapsed mitochondrial membrane potentials was detected by flow cytometry.

[11] = test system: human normal breast cell line MCF10A; assay: CCK-8 assay, normal cells MCF10A; format: cell-based; conditions: MCF-10A, CCK-8, 48 h, mean ± SD of three experiments
Method: as §1

MDA-MB-231 cells [12] = assay: Wound healing assay; format: cell-based, human; conditions: 0.41, 0.82, 1.64 μM, 24 h
Method: In this assay, 6-well plates with 200,000 cells per well were used for the culture of MDA-MB-231 cells at 37 °C for 24 h and the medium of each well was removed. Then, 7Cc at predetermined concentrations (0, 0.41, 0.82, 1.64 μM) was added to the cell culture for incubation. After that, sterile pipette tips were utilised to scratch cell culture in 6-well plates in an even fashion, and detached cells were washed away by PBS with culture medium replaced anew afterward. After 24 h of additional incubation, cell cultures were photographed and migration distance examined accurately.

For `COC1=CC2[C@H]3Cc4ccc(OC)c(OC(=O)c5ccccc5C(=O)OCCCCOc5no[n+]([O-])c5S(=O)(=O)c5ccccc5)c4[C@@]2(CCN3C)CC1=O` (stereo partly drawn) [7Cc, 4–(4-((2-((((4bs,9R)-3,7-Dimethoxy-11-methyl-6-oxo-6,8a,9,10-tetrahydro-5H-9,4b-(epiminoethano)phenanthren-4-yl)oxy)carbonyl)benzoyl)oxy)butoxy)-3-(phenylsulfonyl)-1,2,5-oxadiazole 2-oxide], the “share of S phase in cell cycle” value (MDA-MB-231 cells [1]; 0.41 μM) was 49.10%, the “share of S phase in cell cycle” value (MDA-MB-231 cells [1]; 0.82 μM) was 57.27% and the “share of G2 phase in cell cycle” value (MDA-MB-231 cells [1]; 1.64 μM, control 10.09%) was 5.76%. The “share of G1 phase in cell cycle” value (MDA-MB-231 cells [1]; 1.64 μM, control 44.52%) was 30.09%, the “share of S phase in cell cycle” value (MDA-MB-231 cells [1]; 1.64 μM) was 64.15% and the cellular adhesion (MDA-MB-231 cells [2]) was “clear prevention of TNBC cellular adhesion”. The “time at which top volume of NO released was reached” value [3] was 90 min, the “NO release at 180 min” value ([3]; 180 min) was 39.27 µmol/L and the IC50 ([4]; Homo sapiens, MCF7, 48 h, read-out: IC50 MCF-7) was 1.75 ± 0.15 µM. The “SI MCF-7 (selectivity index)” value ([4]; SI = IC50(MCF-10A)/IC50(MCF-7)) was 15.73, the “apoptotic portions of cells (two quadrants from the right side)” value (from here on “apoptotic portions of cells”) (MDA-MB-231 cells [5]; 0.41 μM) was 16.66% and the “apoptotic portions of cells” value (MDA-MB-231 cells [5]; 0.82 μM) was 26.62%. For the same compound, the “apoptotic portions of cells” value (MDA-MB-231 cells [5]; 1.64 μM) was 53.28%, the IC50 ([6]; Homo sapiens, MDA-MB-231, 48 h, read-out: IC50 MDA-MB-231) was 0.82 ± 0.02 µM and the “SI MDA-MB-231 (selectivity index)” value ([6]; SI = IC50(MCF-10A)/IC50(MDA-MB-231)) was 33.57. The “invasion (cells permeated through transwell membrane)” value (MDA-MB-231 cells [7]) was “notably reduced the number of cells permeated through the membrane”, the IC50 [8] was 1.94 ± 0.05 µM and the “DNA damage (double-strand DNA breaks, comet tail)” value (MDA-MB-231 cells [9]) was “significant presence of endogenous DSBs was observed”. The “percentage of cells with collapsed mitochondrial membrane potential (JC-1)” value (“percentage of cells” below) (MDA-MB-231 cells [10]; 0.41 μM) was 16.40%, the “percentage of cells” value (MDA-MB-231 cells [10]; 0.82 μM) was 31.01% and the “percentage of cells” value (MDA-MB-231 cells [10]; 1.64 μM) was 49.98%. The IC50 [11] was 27.5 ± 2.34 µM and the “migration (wound closure)” value (MDA-MB-231 cells [12]) was “inhibited migration”.
